The values below come from publication PMC9430770 (Microbiology Spectrum, 2022).

The test system of one experiment is Candida albicans 103. Put plainly: Checkerboard microdilution assay with fluconazole. In kind it is cell-based. The text has this:
Ta b l e S3. Interaction of fluconazole ( FLC) and BE probes against isolates of Candida albicans
Compounds Molecular structure Individual action Interaction MIC(μg/ mL ) FICI Mode of
MIC (μg /mL) FLC Compounds interaction
(In general: In broth dilution the organism is exposed to a series of concentrations in liquid medium.)

The next experiment addresses T1, hEno1 (Homo sapiens, UniProt P06733).
T1 construct: 6xHis; made in house; host or cells: E. coli BL21(DE3), inferred from 'same procedure' as CaEno1
Put plainly: Enolase activity analysis (absorbance at 240 nm of PEP). In kind it is biochemical.

A further experiment concerns C. albicans. Nature of the experiment: Treatment in liquid YP medium with different carbon sources, then spotting on solid YPD. In kind it is cell-based, Candida albicans. The conditions noted are these: 128 μg/mL BE, 48 h. The text has this:
FIG 2 Eno1 is a target of BE. (A) Schematic diagram of synthesis label-BE. Label-BE is synthesized by intermediate TPD-10a with benzyl bromide structure and triacetylated BE. (B) The molecular structure of label-BE. Label-BE contains a trifluoromethylphenyl diazo heterocyclic propylene group (marked by a red dotted line) as a photoaffinity group to enhance the binding of label-BE to its target proteins and an alkyne group (marked by a blue dotted line) connected with an azide group (from the TAMRA-N3 or biotin-N3) by a copper-catalyzed azide-alkyne cycloaddition. (C) The molecular structures of TAMRA-N3 and biotin-N3. Both of them contain azide groups (marked by a blue dotted line) connected with an alkyne group of label-BE to highlight the target proteins of label-BE. (D) The competition experiment with BE and label-BE used the TAMRA-N3 as a reporter. C. albicans cell lysates were preincubated with 100 μM BE (lane 2) or not (lane 3). Subsequently, the two groups were incubated with 10 μM label-BE and irradiated with UV light at 365 nm and then treated with TAMRA-N3. After separation of SDS-PAGE, label-BE-targeted proteins were visualized by in-gel fluorescence scanning. The three fluorescent bands in lane 3 (indicated by red triangles) were cut out and pooled and then analyzed by LC-MS/MS. (E) The competition experiment with BE and label-BE used the biotin-N3 as a reporter. In the following enrichment with streptavidin-conjugated beads and separation by SDS-PAGE gel, targets of label-BE were visualized by Coomassie blue staining. The brighter band in lane 3 (indicated by red triangle) was then cut out and analyzed by LC-MS/MS. […] C. albicans cells were first treated with 128 μg/mL BE in liquid YP medium with either 3-PG (32 mg/mL), pyruvate (32 mg/mL), glucose (20 mg/mL), or glycerol (2% [vol/vol]) for 48 h and then were spotted (1:10 dilution) onto solid YPD medium and photographed after 48 h of incubation at 30°C. The red termination line represents inhibition; 3-PG, 3-phosphoglyceric acid. (G) The competition experiment with BE and label-BE used the TAMRA-N3 as a reporter by E. coli cell lysates containing recombinant C. albicans Eno1.
In order to further identify which glycolysis-related protein is the target of BE, we investigated the antifungal activity of BE in the media containing different intermediate products of glycolysis. 3-Phosphoglyceric acid (3-PG) is a downstream intermediate of Pgk1-catalyzed glycolysis but an upstream intermediate of Eno1-catalyzed glycolysis, while pyruvate is a downstream intermediate of Eno1-catalyzed glycolysis (Fig. 2F). […]

In another experiment the test system is C. albicans SN152. Put plainly: Galleria mellonella infection model, SN152 strain. The experiment is classed as in vivo, Candida albicans. Particulars: G. mellonella, 10 mg/kg. Here is the method: To assess whether Eno1 is a therapeutic target of BE, we constructed a homozygous deletion strain for the ENO1 gene (eno1/eno1). We then investigated the difference in the antifungal efficacy of BE on the infections caused by the parent strain SN152 and the eno1/eno1 strain in the Galleria mellonella infection model. We divided the G. mellonella into 5 groups, with 10 larvae in each group. All 10 larvae died after a 24-h infection with the SN152 strain, while only 3 larvae died after 24 h when infected with the eno1/eno1 strain; the remaining larvae died within 7 days. Compared with the group infected with the parent strain, the survival time of the group infected with the eno1/eno1 strain was longer (P < 0.01) (Fig. 4A). […]
FIG 4 Eno1 acts as a therapeutic target of BE. […] Each curve represents a group of 10 larvae (n =10) monitored daily for survival for up to 10 days after infection. […]
Virulence testing of C. albicans was done in Galleria mellonella as described previously ([56]). […] After growth in YPD media overnight at 30°C and 200 rpm, C. albicans SN152 cells or eno1/eno1 mutant cells were washed with PBS 3 times and diluted to the desired concentration (1 × 10^7 cells/mL) determined by counting with a hemacytometer. […] The death of G. mellonella was assessed daily and analyzed statistically by the Kaplan-Meier method (log-rank test).

T1 sequence (P06733 whole entry): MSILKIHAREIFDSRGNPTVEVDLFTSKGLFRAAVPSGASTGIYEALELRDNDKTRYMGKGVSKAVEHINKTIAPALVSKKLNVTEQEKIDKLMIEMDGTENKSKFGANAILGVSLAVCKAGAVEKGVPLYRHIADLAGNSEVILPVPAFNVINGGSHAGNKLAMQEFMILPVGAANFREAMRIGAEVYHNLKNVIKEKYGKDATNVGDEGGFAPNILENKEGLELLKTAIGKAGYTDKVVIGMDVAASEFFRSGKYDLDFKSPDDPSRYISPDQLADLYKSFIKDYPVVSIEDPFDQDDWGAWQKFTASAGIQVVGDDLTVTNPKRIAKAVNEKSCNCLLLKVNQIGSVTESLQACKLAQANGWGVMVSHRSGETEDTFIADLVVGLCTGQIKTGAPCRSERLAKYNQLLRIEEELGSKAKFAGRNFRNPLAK
Protocol for hEno1: Enolase activity was determined by direct spectrophotometric assay via measuring the increase of absorbance at 240 nm of phosphoenolpyruvate (PEP) as described previously with some modifications ([54]). Briefly, the reaction buffer (pH 7.0) containing 10 mM imidazole, 200 mM KCl, and 0.5 mM MgAc in a final reaction volume of 100 μL was mixed with Eno1 (a final concentration of 30 nM), followed by the mixture of 2-phosphoglycerate (2-PG) (Yuanye Biotech Shanghai) with a final concentration of 1 mM. The enolase activity of Eno1 was evaluated by measuring the increase of absorbance (OD240) at room temperature for 10 min. […] The well-known enolase inhibitor sodium fluoride (NaF; Sangon Biotech) was initiated from 5 mM and used as a control ([29]). Inhibition curves were fitted by nonlinear regression (four parameters) using the GraphPad Prism software.

Turning to `O=c1cc(-c2ccccc2)oc2cc(O)c(O)c(O)c12` [BE, Baicalein], the “Interaction MIC FLC” value in the experiment with Candida albicans 103 (MIC of FLC in combination with the compound) was 1 µg/mL. For the same compound, the “Interaction MIC Compounds” value in the experiment on Candida albicans 103 (MIC of the compound in combination with FLC) stood at 1 µg/mL. The FICI with Candida albicans 103 (combination with FLC) was 0.039. Moreover, in the experiment with Candida albicans 103 (combination with FLC, FLC-resistant C. albicans), the Mode of interaction result is “Synergism”. For the same compound, the “Individual action MIC” value with Candida albicans 103 (compound alone) came out at 32 µg/mL. Further, the IC50 on hEno1 is 91.3 ± 3.1 µM. Moreover, the antifungal activity entry was “strong antifungal activity” in the experiment with C. albicans (liquid YP medium with 3-PG (32 mg/mL)), “strong antifungal activity” with C. albicans (liquid YP medium with glucose (20 mg/mL)), “no antifungal activity” in the experiment with C. albicans (liquid YP medium with glycerol (2% vol/vol)) and “no antifungal activity” in the experiment on C. albicans (liquid YP medium with pyruvate (32 mg/mL)). Also, in the experiment on C. albicans SN152, the “survival rate of larvae extended versus infected group without drug treatment” value was 30%.

As a reminder, the IC50 is the concentration that inhibits the measured activity by half.
